“Also recorded” adds a separate entry of the source.

In assay [1] the test system is Schistosoma mansoni adult worms. Kind of assay: Schistosoma mansoni adult worm phenotype screen in vitro. As to conditions: Second Set, 5 uM. The text has this: (§1) Puerto Rican isolates of S. mansoni using Biomphalaria glabrata snails and golden hamsters as intermediate and definitive hosts, respectively, were maintained and handled in the University of California-San Francisco Sandler Center for Tropical Medicine. Patent B. glabrata snails (6-8 weeks after exposure to 5-10 infectious miracidia) were induced to shed infective larvae (cercariae) under light stimulus into the surrounding water. Cercariae were washed in rounds of ice-cold water and concentrated through and over sieves of varying pore sizes. They were then mechanically sheared (separation of heads from tails) as described in Colley D G, et al. Exp Parasitol 1974, 35:44-51, in ice-cold Incomplete Medium 169 (as described in Basch P F. J Parasitol 1981, 67:179-185, minus FBS and antibiotics) by passing 15 times through a double headed 22-gauge syringe needle connected to two 10 mL syringes. The resulting cercarial heads (schistosomula) were separated from their tails by swirling in a petri dish. Concentrated schistosomula were added to a sterile 1.5 mL centrifuge tube and allowed to settle over ice. Schistosomula were transferred to a sterile environment and washed 4 times in Incomplete Medium 169 prior to plating.
(§2) Two sets of screening were performed. In the first set, compounds were screened against schistosomula and observations were made at 24 hours, 2 days, 3 days, 4 days, and 6 days. In the second set, compounds were screened against schistosomula with observations at 24 hours, 2 days, 3 days, and 4 days and adult worms at 7 hours, 24 hours, 4 days, and 6 days.
Given the delicacy and size (0.5-1.5 cm in length) of this stage all operations were performed manually by the Sandler Center. 24-well plates were set up with compound (final DMSO concentration=0.5%) containing approximately 5 pairs of worms (S. mansoni has separate sexes) in 2 mL complete Basch medium per well. Plates were maintained at 37° C. in a 5% CO2 atmosphere. All compounds were tested in duplicate with at least two experimental replicates.
(§3) A semi-quantitative and controlled nomenclature for phenotypes that can arise as a result of compound insult to both schistosomula and adults was utilized (Abdulla M H, et al., PLoS Negl Trop Dis 2009, 3:e478). Phenotypes were recorded by visual inspection and on a flexible time basis but at least at 24 h and 4 day time-points in the case of large scale screening. […] To help eliminate bias, two screen analysts scored phenotypes ‘blind’ both to knowledge of the contents of each screening plate and the phenotypes scored by his/her colleague. Upon completing their individual assessments, each analyst's ‘hit sheet’ was then compared to derive a ‘consensus hit sheet’. Discrepancies in analysts' hit sheets were re-evaluated under the microscope to eventually make a consensus hit call.
(§4) Hyper-coiled and coiled represent a verbal description of the visual phenotype as compared to the DMSO control. The + and ++ and +++ means more of the phenotype which preceded it. The − means less of the phenotype which preceded it. Results

Assay [2] has as its system Schistosoma mansoni schistosomula. Kind of assay: Schistosoma mansoni schistosomula phenotype screen in vitro. As to conditions: for Schistosomula phenotype day 4 / Schistosomula phenotype day 2 / Schistosomula phenotype day 6: First Set.
Source text: as §1, §2
Plates contain 200 schistosomula/well in […] complete Basch medium and were maintained at 37° C. in a 5% CO2 atmosphere. All compounds were tested in duplicate with at least two experimental replicates. Compounds and control compounds were added to the plates using the Biomek FXp using 96-well disposable tips. Final concentration of DMSO in each well was 0.5%.
as §3, §4

`N#Cc1ccc(Oc2ccc3c(c2)COB3O)nc1OC1CCCC1` [2-Cyclopentyloxy-6-(1-hydroxy-1,3-dihydro-benzo[c][1,2]oxaborol-5-yloxy)-nicotinonitrile]: the “Adult worm screen phenotype 7 h” value in assay [1] is given as “O+”. Also, in assay [1] (24 h), the “Adult worm screen phenotype 24 h” value was “O−”. The “Adult worm screen phenotype 4 d” value in assay [1] (4 d) is “v, slow, sex; also recorded: sep, on sides”. Further, the “Adult worm screen phenotype 6 d*” value in assay [1] (6 d) was “Dark, S,; also recorded: Partial D (Partial D=partial killing of worm population)”. In assay [2] (Second Set, 5 uM), the “Schistosomula (juvenile infective form) worm screen phenotype 2 d” value is “O++, R−, and some and deg-M”; the “Schistosomula (juvenile infective form) worm screen phenotype 3 d” value was “O++, R−, and some and deg-M”; the “Schistosomula (juvenile infective form) worm screen phenotype 4 d” value is “O++, R−,; also recorded: some deg-M”.

Consider `N#Cc1ccc(Oc2ccc3c(c2)COB3O)nc1` [6-(1-hydroxy-1,3-dihydrobenzo[c][1,2]oxaborol-5-yloxy)nicotinonitrile], for which the “Adult worm screen phenotype 7 h” value in assay [1] was “O−”. The “Schistosomula phenotype day 4” value in assay [2] is “O−, and R−”. The “Schistosomula (juvenile infective form) worm screen phenotype 24 h” value in assay [2] (Second Set, 5 uM, 24 h) was “R−, O−”. Moreover, in assay [2] (Second Set, 5 uM), the “Schistosomula (juvenile infective form) worm screen phenotype 2 d” value was “R−, O−, and some and deg-M”; the “Schistosomula (juvenile infective form) worm screen phenotype 3 d” value is on record as “O, some; also recorded: deg-M”; the “Schistosomula (juvenile infective form) worm screen phenotype 4 d” value is “O, some deg-M”.

`CCOC(=O)c1ccc(Oc2ccc3c(c2)COB3O)nc1OCC` [Ethyl 2-ethoxy-6-(1-hydroxy-1,3-dihydrobenzo[c][1,2]oxaborol-5-yloxy)nicotinate]: in assay [2], the “Schistosomula phenotype day 2” value was “(shrunk)”; the “Schistosomula phenotype day 4” value is “O, (O=overactive); also recorded: deg-m”; the “Schistosomula phenotype day 6” value was “R, (R=round); also recorded: Partial D (Partial D=partial killing of worm population)”.

Consider `CCOC(=O)c1cnc(Oc2ccc3c(c2)COB3O)c(Cl)c1` [Ethyl 5-chloro-6-(1-hydroxy-1,3-dihydrobenzo[c][1,2]oxaborol-5-yloxy)nicotinate], for which, in assay [2], the “Schistosomula phenotype day 6” value was “R O and deg-M and partial D”.

For `CC(C)OC(=O)c1ccc(Oc2ccc3c(c2)COB3O)nc1` [Isopropyl 6-(1-hydroxy-1,3-dihydrobenzo[c][1,2]oxaborol-5-yloxy)nicotinate], in assay [2], the “Schistosomula phenotype day 2” value is on record as “O, (O=overactive); also recorded: deg-m”; the “Schistosomula phenotype day 4” value is “O, R, and some and deg-m”; the “Schistosomula phenotype day 6” value is reported as “O, R,; also recorded: Partial D (Partial D=partial killing of worm population)”.

On to `CC(=O)NCc1ccc(Oc2ccc3c(c2)COB3O)cc1` [N-[4-(1-Hydroxy-1,3-dihydro-benzo[c][1,2]oxaborol-5-yloxy)-benzy]-acetamide], for which the “Schistosomula phenotype day 4” value in assay [2] was “D (D=dead)”.

Regarding `CCCCOC(=O)c1ccc(Oc2ccc3c(c2)COB3O)nc1` [n-Butyl 6-(1-hydroxy-1,3-dihydrobenzo[c][1,2]oxaborol-5-yloxy)nicotinate], in assay [2], the “Schistosomula phenotype day 2” value was “(strong); also recorded: O, deg-m”; the “Schistosomula phenotype day 4” value is reported as “deg-m,; also recorded: (shrunk); also recorded: O, R,”; the “Schistosomula phenotype day 6” value is given as “deg-m; also recorded: O, R, D,”.

For the compound `CCCOC(=O)c1ccc(Oc2ccc3c(c2)COB3O)nc1` [n-Propyl 6-(1-hydroxy-1,3-dihydrobenzo[c][1,2]oxaborol-5-yloxy)nicotinate], in assay [2], the “Schistosomula phenotype day 2” value is “O+ and (shrunk)”; the “Schistosomula phenotype day 6” value was “O, R,; also recorded: Partial D (Partial D=partial killing of worm population)”.

The values above are taken from patent publication US9499570B2, “Boron containing small molecules” (priority 2010, dated 2016).
